Measurements as given in the supplement of paper PMC13207355.
Structures can show the parent of a compound that is named as a salt.

Columns and labels:
Settings in all cases: exposure time: 72 h
FT3469 [1] = normal neural stem cell line; assay: surviving fraction (nuclei count normalised to DMSO); higher = more cells surviving (less toxic)
E13 [2] = patient-derived glioblastoma stem cells of classical subtype; assay: as above
E28 [3] = patient-derived glioblastoma stem cells of classical subtype; assay: as above
E57 [4] = patient-derived glioblastoma stem cells of mesenchymal subtype; assay: as above
E34 [5] = patient-derived glioblastoma stem cells of proneural subtype; assay: as above
E21 [6] = patient-derived glioblastoma stem cells of mesenchymal subtype; assay: as above
E31 [7] = patient-derived glioblastoma stem cells of proneural subtype; assay: as above
FT3469 [8] = assay: phenotypic distance (Euclidean, principal components) from DMSO controls (arbitrary units); higher = stronger morphological change
E13 [9] = assay: as above
E28 [10] = assay: as above
E57 [11] = assay: as above
E34 [12] = assay: as above
E21 [13] = assay: as above
E31 [14] = assay: as above
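Wherever phenotypic distance (Euclidean, principal components) from DMSO controls is given: cell Painting imaging in 384-well plates, CellProfiler features reduced to at least 20 principal components, Euclidean distance versus same-plate DMSO vehicle wells (0.1% v/v), median over six images per well.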
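Wherever surviving fraction (nuclei count normalised to DMSO) is given: nuclei counted by high-content imaging of Hoechst-stained cells in laminin-coated 384-well plates, relative to 0.1% DMSO vehicle wells, with staurosporine as cell-death control.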

COc1cccc2c1C(=O)c1c(O)c3c(c(O)c1C2=O)C[C@@](O)(C(C)=O)C[C@@H]3O[C@H]1C[C@H](N)[C@H](O)[C@H](C)O1 [Daunorubicin hydrochloride]
Settings | phenotypic distance | surviving fraction
E13 [2], 4.1 nM | – | 0.54
E13 [2], 12.3 nM | – | 0.512
E13 [2], 37 nM | – | 0.342
E13 [2], 111.1 nM | – | 0.381
E13 [2], 333.3 nM | – | 0.216
E13 [2], 1000 nM | – | 0.0373
E13 [2], 3000 nM | – | 0.0142
E13 [9], 4.1 nM | 3.33 | –
E13 [9], 12.3 nM | 4.36 | –
E13 [9], 37 nM | 6.02 | –
E13 [9], 111.1 nM | 5.64 | –
E13 [9], 333.3 nM | 5.87 | –
E13 [9], 1000 nM | 7.81 | –
E13 [9], 3000 nM | 5.88 | –
E21 [6], 4.1 nM | – | 0.844
E21 [6], 12.3 nM | – | 0.597
E21 [6], 37 nM | – | 0.451
E21 [6], 111.1 nM | – | 0.343
E21 [6], 333.3 nM | – | 0.151
E21 [6], 1000 nM | – | 0.0632
E21 [6], 3000 nM | – | 0.055
E21 [13], 4.1 nM | 1.95 | –
E21 [13], 12.3 nM | 4.33 | –
E21 [13], 37 nM | 6.78 | –
E21 [13], 111.1 nM | 5.96 | –
E21 [13], 333.3 nM | 5.7 | –
E21 [13], 1000 nM | 6.37 | –
E21 [13], 3000 nM | 6.06 | –
E28 [3], 4.1 nM | – | 0.408
E28 [3], 12.3 nM | – | 0.419
E28 [3], 37 nM | – | 0.339
E28 [3], 111.1 nM | – | 0.251
E28 [3], 333.3 nM | – | 0.185
E28 [3], 1000 nM | – | 0.187
E28 [3], 3000 nM | – | 0.11
E28 [10], 4.1 nM | 1.76 | –
E28 [10], 12.3 nM | 2.56 | –
E28 [10], 37 nM | 2.56 | –
E28 [10], 111.1 nM | 3.09 | –
E28 [10], 333.3 nM | 3.78 | –
E28 [10], 1000 nM | 3.13 | –
E28 [10], 3000 nM | 5.54 | –
E31 [7], 4.1 nM | – | 0.51
E31 [7], 12.3 nM | – | 0.293
E31 [7], 37 nM | – | 0.266
E31 [7], 111.1 nM | – | 0.134
E31 [7], 333.3 nM | – | 0.0818
E31 [7], 1000 nM | – | 0.0315
E31 [7], 3000 nM | – | 0.0944
E31 [14], 4.1 nM | 2.77 | –
E31 [14], 12.3 nM | 2.46 | –
E31 [14], 37 nM | 2.46 | –
E31 [14], 111.1 nM | 4.45 | –
E31 [14], 333.3 nM | 4.56 | –
E31 [14], 1000 nM | 7.33 | –
E31 [14], 3000 nM | 5.46 | –
E34 [5], 4.1 nM | – | 0.644
E34 [5], 12.3 nM | – | 0.611
E34 [5], 37 nM | – | 0.591
E34 [5], 111.1 nM | – | 0.445
E34 [5], 333.3 nM | – | 0.471
E34 [5], 1000 nM | – | 0.259
E34 [5], 3000 nM | – | 0.0925
E34 [12], 4.1 nM | 1.67 | –
E34 [12], 12.3 nM | 4.29 | –
E34 [12], 37 nM | 4.68 | –
E34 [12], 111.1 nM | 3.18 | –
E34 [12], 333.3 nM | 2.84 | –
E34 [12], 1000 nM | 4.23 | –
E34 [12], 3000 nM | 3.57 | –
E57 [4], 4.1 nM | – | 0.583
E57 [4], 12.3 nM | – | 0.325
E57 [4], 37 nM | – | 0.194
E57 [4], 111.1 nM | – | 0.178
E57 [4], 333.3 nM | – | 0.149
E57 [4], 1000 nM | – | 0.0932
E57 [4], 3000 nM | – | 0.0598
E57 [11], 4.1 nM | 3.27 | –
E57 [11], 12.3 nM | 6.2 | –
E57 [11], 37 nM | 9.2 | –
E57 [11], 111.1 nM | 7.86 | –
E57 [11], 333.3 nM | 6.42 | –
E57 [11], 1000 nM | 6.83 | –
E57 [11], 3000 nM | 7.19 | –
FT3469 [1], 4.1 nM | – | 0.644
FT3469 [1], 12.3 nM | – | 0.625
FT3469 [1], 37 nM | – | 0.487
FT3469 [1], 111.1 nM | – | 0.606
FT3469 [1], 333.3 nM | – | 0.593
FT3469 [1], 1000 nM | – | 0.0798
FT3469 [1], 3000 nM | – | 0.0266
FT3469 [8], 4.1 nM | 1.72 | –
FT3469 [8], 12.3 nM | 1.77 | –
FT3469 [8], 37 nM | 2.11 | –
FT3469 [8], 111.1 nM | 2.17 | –
FT3469 [8], 333.3 nM | 2.57 | –
FT3469 [8], 1000 nM | 4.08 | –
FT3469 [8], 3000 nM | 7.48 | –

C[C@@H](Oc1cc(-c2cnn(C3CCNCC3)c2)cnc1N)c1c(Cl)ccc(F)c1Cl [Crizotinib]
Settings | phenotypic distance | surviving fraction
E13 [2], 4.1 nM | – | 0.978
E13 [2], 12.3 nM | – | 0.948
E13 [2], 37 nM | – | 0.972
E13 [2], 111.1 nM | – | 0.863
E13 [2], 333.3 nM | – | 0.881
E13 [2], 1000 nM | – | 0.849
E13 [2], 3000 nM | – | 0.482
E13 [9], 4.1 nM | 0.499 | –
E13 [9], 12.3 nM | 0.452 | –
E13 [9], 37 nM | 0.936 | –
E13 [9], 111.1 nM | 0.626 | –
E13 [9], 333.3 nM | 0.58 | –
E13 [9], 1000 nM | 1.09 | –
E13 [9], 3000 nM | 3.75 | –
E21 [6], 4.1 nM | – | 0.907
E21 [6], 12.3 nM | – | 0.826
E21 [6], 37 nM | – | 1.02
E21 [6], 111.1 nM | – | 0.883
E21 [6], 333.3 nM | – | 0.986
E21 [6], 1000 nM | – | 0.78
E21 [6], 3000 nM | – | 0.472
E21 [13], 4.1 nM | 0.599 | –
E21 [13], 12.3 nM | 1.58 | –
E21 [13], 37 nM | 0.706 | –
E21 [13], 111.1 nM | 0.783 | –
E21 [13], 333.3 nM | 0.751 | –
E21 [13], 1000 nM | 1.37 | –
E21 [13], 3000 nM | 3.3 | –
E28 [3], 4.1 nM | – | 1.02
E28 [3], 12.3 nM | – | 0.941
E28 [3], 37 nM | – | 0.83
E28 [3], 111.1 nM | – | 0.923
E28 [3], 333.3 nM | – | 0.96
E28 [3], 1000 nM | – | 0.837
E28 [3], 3000 nM | – | 0.326
E28 [10], 4.1 nM | 0.935 | –
E28 [10], 12.3 nM | 0.741 | –
E28 [10], 37 nM | 1.91 | –
E28 [10], 111.1 nM | 0.725 | –
E28 [10], 333.3 nM | 0.457 | –
E28 [10], 1000 nM | 0.886 | –
E28 [10], 3000 nM | 2.74 | –
E31 [7], 4.1 nM | – | 0.998
E31 [7], 12.3 nM | – | 1.05
E31 [7], 37 nM | – | 0.891
E31 [7], 111.1 nM | – | 0.884
E31 [7], 333.3 nM | – | 1.13
E31 [7], 1000 nM | – | 0.96
E31 [7], 3000 nM | – | 0.472
E31 [14], 4.1 nM | 0.339 | –
E31 [14], 12.3 nM | 0.524 | –
E31 [14], 37 nM | 0.734 | –
E31 [14], 111.1 nM | 0.728 | –
E31 [14], 333.3 nM | 0.762 | –
E31 [14], 1000 nM | 1.01 | –
E31 [14], 3000 nM | 3.13 | –
E34 [5], 4.1 nM | – | 0.973
E34 [5], 12.3 nM | – | 0.985
E34 [5], 37 nM | – | 0.786
E34 [5], 111.1 nM | – | 1.1
E34 [5], 333.3 nM | – | 0.933
E34 [5], 1000 nM | – | 0.88
E34 [5], 3000 nM | – | 0.565
E34 [12], 4.1 nM | 0.825 | –
E34 [12], 12.3 nM | 0.797 | –
E34 [12], 37 nM | 0.989 | –
E34 [12], 111.1 nM | 0.934 | –
E34 [12], 333.3 nM | 0.571 | –
E34 [12], 1000 nM | 1.16 | –
E34 [12], 3000 nM | 2.7 | –
E57 [4], 4.1 nM | – | 1.03
E57 [4], 12.3 nM | – | 0.937
E57 [4], 37 nM | – | 1.01
E57 [4], 111.1 nM | – | 0.957
E57 [4], 333.3 nM | – | 1.04
E57 [4], 1000 nM | – | 0.857
E57 [4], 3000 nM | – | 0.477
E57 [11], 4.1 nM | 0.221 | –
E57 [11], 12.3 nM | 1.2 | –
E57 [11], 37 nM | 0.43 | –
E57 [11], 111.1 nM | 0.517 | –
E57 [11], 333.3 nM | 0.355 | –
E57 [11], 1000 nM | 0.883 | –
E57 [11], 3000 nM | 4.09 | –
FT3469 [1], 4.1 nM | – | 0.854
FT3469 [1], 12.3 nM | – | 1.03
FT3469 [1], 37 nM | – | 1.09
FT3469 [1], 111.1 nM | – | 1.09
FT3469 [1], 333.3 nM | – | 0.941
FT3469 [1], 1000 nM | – | 0.891
FT3469 [1], 3000 nM | – | 0.574
FT3469 [8], 4.1 nM | 0.558 | –
FT3469 [8], 12.3 nM | 0.592 | –
FT3469 [8], 37 nM | 0.496 | –
FT3469 [8], 111.1 nM | 0.573 | –
FT3469 [8], 333.3 nM | 0.58 | –
FT3469 [8], 1000 nM | 0.774 | –
FT3469 [8], 3000 nM | 2.09 | –
